CC(C)N1C(=O)N(c2ccccc2)CSC1=NC(C)(C)C
solubility (mole fraction)
Conditions	273.15 K	278.15 K	283.15 K	288.15 K	293.15 K	298.15 K	303.15 K	308.15 K	313.15 K	318.15 K
in DMF	0.0306	0.0389	0.0493	0.0608	0.0725	0.0871	0.104	0.122	0.141	0.162
in acetone	0.03	0.0361	0.0427	0.0504	0.0593	0.0699	0.0814	0.096	0.114	0.134
in acetonitrile	0.00534	0.00774	0.0101	0.0133	0.0171	0.0219	0.0284	0.0354	0.0448	0.0564
in ethanol	0.00539	0.007	0.00917	0.0116	0.0146	0.0182	0.0228	0.0276	0.0342	0.0425
in ethyl acetate	0.0372	0.0465	0.0561	0.0679	0.0815	0.0971	0.116	0.136	0.16	0.187
in isopropanol	0.00586	0.00785	0.0103	0.0131	0.0165	0.0207	0.0254	0.031	0.0376	0.0454
in methanol	0.00377	0.00497	0.0064	0.00797	0.00998	0.0123	0.0154	0.0184	0.0225	0.0272
in n-butanol	0.00627	0.00908	0.0127	0.0167	0.0218	0.0281	0.0364	0.045	0.0577	0.0714
in n-octanol	0.00824	0.0114	0.0152	0.0197	0.0251	0.0321	0.0404	0.0505	0.063	0.0789
in n-propanol	0.00564	0.00798	0.011	0.0148	0.019	0.0254	0.0323	0.0414	0.0528	0.0668
in toluene	0.053	0.0651	0.0782	0.0924	0.11	0.128	0.15	0.172	0.198	0.227
in water	2.84e-05	3.48e-05	4.18e-05	5.08e-05	6.05e-05	7.26e-05	8.54e-05	0.000101	0.00012	0.000144

Source: BigSolDB 2.1
